Assay results from patent US9055743B2, “Alpha, beta-unsaturated imines” (BAYER INTELLECTUAL PROPERTY GMBH, priority 2010, dated 2015).

Assays:
Assay type in all cases: in vivo
[1] = tested on: Anopheles gambiae (homocygus kdr); assay: Anopheles test (ANPHGB surface treatment); details: for knock-down activity: 100 mg/m^2, two hours after contact, exposition 30 minutes
Outline: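 Adult mosquitoes held 30 min on a glazed tile treated with a dried 2 mg/ml acetone solution of compound. Mortality scored at 24 h (100% = all killed), knock-down percentage at 2 h post-contact.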

[2] = tested on: green peach aphid (Myzus persicae); assay: Myzus test (MYZUPE spray treatment); details: 500 g/ha, spray, after 6 days
Outline: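 Activity read as % aphid kill 6 days after treatment (0% = none killed). Compound formulated in acetone and dimethylformamide plus alkylaryl polyglycol ether, diluted in water and sprayed onto infested Brassica pekinensis leaf discs.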

[3] = tested on: larvae of the mustard beetle (Phaedon cochleariae); assay: Phaedon test (PHAECO spray treatment); details: 500 g/ha, spray, after 7 days
Outline: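 Mustard beetle larvae were placed on dried Brassica pekinensis leaf discs previously spray-treated with test compound; formulation used acetone and dimethylformamide solvents plus alkylaryl polyglycol ether emulsifier, diluted with emulsifier-containing water.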

[4] = tested on: caterpillars of the army worm (Spodoptera frugiperda); assay: Spodoptera frugiperda test (SPODFR spray treatment); details: 500 g/ha, spray, after 7 days
Outline: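 Activity in % read 7 days after armyworm caterpillars were placed on dried, sprayed Zea mays leaf discs; 0% means none killed. Spray prepared from an acetone/DMF concentrate with emulsifier, diluted with emulsifier-containing water.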

[5] = tested on: cat fleas (Ctenocephalides felis, fully sensitive laboratory strain); assay: Contact test against fleas in-vitro (CTECFE contact); details: 500 g/ha, after 48 h
Outline: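 Test tubes coated from acetone solutions by rotation, top concentration 500 g/ha (500 μg/dm^2) on tube surface, serial 1:5 dilutions. 10-20 CO2-anesthetized adult fleas held at room temperature for 24 and 48 h. Activity scored versus acetone control: knock-down or death of all fleas = 100%.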

Aedes aegypti = assay: Aedes test (AEDSAE surface treatment); details: for knock-down activity: 100 mg/m^2, two hours after contact, exposition 30 minutes
Method: Aedes Test (AEDSAE Surface Treatment)
To produce a suitable preparation of active compound, the active compound is dissolved in acetone (2 mg/ml). The active compound preparation is pipetted onto a glazed tile and, after drying, adult mosquitoes of the species Aedes aegypti are placed onto the treated tile. The exposition time is 30 minutes.
Two hours after contact to the treated surface, the knock-down proportion of the test animals in % is determined.
24 hours after contact to the treated surface, the mortality in % is determined Here, 100% means that all mosquitoes have been killed; 0% means that none of the mosquitoes has been killed.

Boophilus microplus = Boophilus microplus test (BOOPMI injection); details: 20 μg/animal, injection into the abdomen, after 7 days
Method: Boophilus microplus Test (BOOPMI Injection)
(§1) Solvent: Dimethyl Sulphoxide
To produce a suitable preparation of active compound, 10 mg of active compound are mixed with 0.5 ml of solvent and the concentrate is diluted with solvent to the desired concentration. The solution of active compound is injected into the abdomen (Boophilus microplus), and the animals are transferred into dishes and kept in a climatized room. The activity is assessed by […] of fertile eggs.
After 7 days, the effect in % is determined 100% means that none of the ticks has laid any fertile eggs.

Lucilia cuprina larvae = assay: Lucilia cuprina test (LUCICU); details: 100 ppm, after 2 days
Method: Lucilia cuprina Test (LUCICU)
as §1
(§2) To produce a suitable preparation of active compound, 10 mg of active compound are mixed with 0.5 ml of dimethyl sulphoxide and the concentrate is diluted with water to the desired concentration. Vessels containing horsemeat treated with the active compound preparation of the desired concentration are populated with about 20 Lucilia cuprina larvae.
After 2 days, the kill in % is determined. 100% means that all larvae have been killed; 0% means that none of the larvae have been killed.

[6] = tested on: greenhouse red spider mite (Tetranychus urticae); assay: Tetranychus test; OP-resistant (TETRUR spray treatment); details: 500 g/ha, spray, after 6 days
Outline: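 Activity, as % of mites killed (0–100%), was assessed 6 days after spraying. The spray was compound formulated with acetone, DMF and emulsifier, then diluted in water. It was applied to Phaseolus vulgaris leaf discs carrying every life stage of an OP-resistant spider mite strain.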

Ctenocephalides felis = Ctenocephalides felis oral test (CTECFE); details: 100 ppm in citrated cattle blood, after two days
Method: Ctenocephalides Felis Oral Test (CTECFE)
Solvent: 1 Part by Weight of Dimethyl Sulphoxide
To produce a suitable preparation of active compound, 10 mg of active compound are mixed with 0.5 ml of dimethyl sulphoxide. Part of the concentrate is diluted with citrated cattle blood, and the desired concentration is prepared.
About 20 unfed adult fleas (Ctenocephalides felis) are placed into a chamber which is closed at the top and bottom with gauze. A metal cylinder whose bottom end is closed with parafilm is placed onto the chamber. The cylinder contains the blood/active compound preparation, which can be taken up by the fleas through the parafilm membrane. After two days, the kill in % is determined 100% means that all fleas have been killed; 0% means that none of the fleas have been killed.

[7] = tested on: Boophilus microplus strain Parkhurst, SP-resistant; assay: Boophilus microplus test (DIP); details: 100 ppm, after 7 days
Method: Boophilus microplus Test (DIP) Test Animals: Adult Fat Females of the Boophilus microplus Strain Parkhurst—SP-Resistant) Solvent: Dimethyl Sulphoxide
10 mg of active compound are dissolved in 0.5 ml of dimethyl sulphoxide. To produce a suitable formulation, the active compound solution is diluted with water to the particular desired concentration.
This active compound preparation is pipetted into tubes. 8-10 ticks are transferred into a further tube provided with holes. The tube is dipped into the active compound preparation, with all the ticks being wetted completely. After the liquid has run off, the ticks are transferred to filter discs in plastic dishes and kept in a climatized room. After 7 days, the activity is checked for deposition of fertile eggs. Eggs whose fertility is not visible from the outside are kept in glass tubes in a climatized cupboard until the larvae have hatched. An activity of 100% means that no tick has laid fertile eggs.

Musca domestica = Musca domestica test (MUSCDO); details: 100 ppm, after 2 days
Method: Musca domestica Test (MUSCDO)
as §1
as §2, with “a sponge” for “horsemeat”, “adult Musca domestica.” for “about 20 Lucilia cuprina larvae.”
After 2 days, the kill in % is determined 100% means that all flies have been killed; 0% means that none of the flies have been killed.

Row | SMILES | knock-down activity [1] [%] | activity (aphids killed) [2] [%] | activity (beetle larvae killed) [3] [%] | activity (caterpillars killed) [4] [%] | activity against cat fleas [5] [%] | knock-down activity (Aedes aegypti) [%] | activity (100% = none of the ticks has laid any fertile eggs) (Boophilus microplus) [%] | activity (kill in %) (Lucilia cuprina larvae) [%] | activity (spider mites killed) [6] [%] | activity (kill in %) (Ctenocephalides felis) [%] | activity (100% = no tick has laid fertile eggs) [7] [%] | mortality at 100 mg/m2 ([1]; Anopheles gambiae, read-out: activity (mortality in %)) [%] | pest or weed control at 500 g/ha ([2]; Myzus persicae, 144 h, read-out: activity (aphids killed)) [%] | pest or weed control at 500 g/ha ([3]; Phaedon cochleariae, 168 h, read-out: activity (beetle larvae killed)) [%] | pest or weed control at 500 g/ha ([4]; Spodoptera frugiperda, 168 h, read-out: activity (caterpillars killed)) [%] | mortality at 100 mg/m2 (Aedes aegypti; Aedes aegypti, read-out: activity (mortality in %)) [%] | pest or weed control at 500 g/ha ([6]; Tetranychus urticae, 144 h, read-out: activity (spider mites killed)) [%] | activity (kill in %) (Musca domestica) [%]
1 | Cc1ccc(N=C2C(=CSc3ccccc3F)CCc3ccccc32)cc1 [Example 1-80] | 100 | 100 | 100 | 100 | 100 | 80 | 100 | 100 | 100 | 90 | – | – | – | – | – | – | – | –
2 | Cc1ccc(N=C2C(=CSc3cccc(Cl)c3)CCc3ccccc32)cc1 [Example 1-62] | 100 | 100 | 100 | 100 | 100 | – | 100 | 80 | 100 | 100 | 100 | – | – | – | – | – | – | –
3 | Cc1ccc(N=C2C(=CSc3ccccc3)CSc3ccccc32)cc1 [Example 1-4] | 100 | 100 | 100 | 100 | 100 | – | 100 | 100 | 100 | 100 | 100 | – | – | – | – | – | – | –
4 | Cc1ccc(N=C2/C(=C/Sc3ccccc3)CCc3ccccc32)cc1 [Example 1-1] | 100 | – | – | – | 100 | 100 | 100 | 100 | – | 80 | 100 | 100 | 100 | 100 | 100 | 100 | 100 | –
5 | CCC1C(=CSc2ccc(F)cc2)C(=Nc2ccc(C)cc2)c2ccccc21 (mixture of isomers) [Example 1-37] | – | 100 | 100 | 100 | 100 | – | 100 | 100 | 100 | 100 | – | – | – | – | – | – | – | 90
6 | Cc1ccc(N=C2C(=CSc3ccc(F)c(F)c3)CCc3ccccc32)cc1 [Example 1-74] | 100 | 100 | 100 | 100 | 100 | 95 | 100 | 100 | 100 | 80 | – | – | – | – | – | – | – | –
7 | Cc1ccc(N=C2C(=CSc3ccc(F)cc3)CCc3c(F)cccc32)cc1 (mixture of isomers) [Example 1-34] | 100 | – | 100 | 100 | 100 | 100 | 100 | 100 | – | 100 | 80 | – | – | – | – | – | – | –
8 | Cc1ccc(N=C2C(=CSc3ccc(Cl)cc3)CCc3ccccc32)cc1 [Example 1-59] | – | 100 | 100 | 100 | 100 | – | 100 | 90 | 100 | 100 | 100 | – | – | – | – | – | – | –
9 | Cc1ccc(N=C2C(=CSc3ccc(F)cc3)CCc3occc32)cc1 [Example 1-29] | – | 100 | 100 | 100 | 100 | 90 | – | 100 | 100 | 80 | 100 | – | – | – | – | – | – | 100
10 | Cc1ccc(N=C2C(=CSc3ccc(F)cc3F)CCc3ccccc32)cc1 [Example 1-79] | 100 | 100 | 100 | 100 | 100 | 100 | 100 | 100 | 100 | 100 | – | – | – | – | – | – | – | –
11 | COc1ccc(N=C2C(=CSc3ccccc3)CCc3ccccc32)cc1 [Example 1-10] | 95 | – | 100 | 100 | 100 | – | 100 | 90 | 100 | 80 | – | – | – | – | – | – | – | 100
12 | Cc1ccc(N=C2C(=CSc3ccccc3Cl)CCc3ccccc32)cc1 [Example 1-69] | 90 | 90 | 100 | 100 | 100 | – | 100 | 100 | 100 | 100 | – | – | – | – | – | – | – | –
